Source: ChEMBL document CHEMBL5032508, “Synthesis of Fluorescent Probes Targeting Tumor-Suppressor Protein FHIT and Identification of Apoptosis-Inducing FHIT Inhibitors” (J Med Chem, 2021)
Each block holds one compound with its values, some of them ahead of it. Calls of active or inactive are those of the source. The rule behind the calls is not given here.

How the values were obtained:
NCI-H460-Luc [1] = assay: Induction of apoptosis in human NCI-H460-Luc cells weakly expressing FHIT assessed as reduction in cell viability measured after 24 hrs by CCK-8 assay; format: functional, cell-based
HCC827-Luc [2] = assay: Induction of caspase-mediated apoptosis in human HCC827-Luc cells assessed as reduction in cell viability pretreated with caspase inhibitor Z-VAD-fmk for 1 hr followed by compound addition and measured after 72 hrs by CCK-8 assay; format: functional, cell-based
[3] = target: Bis(5'-adenosyl)-triphosphatase (Homo sapiens) (UniProt P49789); assay: Noncompetitive inhibition of human recombinant FHIT assessed as reduction in hydrolysis of TG-CMP at 1 to 9 uM measured for 30 mins by Lineweaver-Burk plot analysis; conditions: dose 1-9 µM
HCC827-Luc [4] = assay: Induction of apoptosis in human HCC827-Luc cells expressing FHIT assessed as reduction in cell viability measured after 24 hrs by CCK-8 assay; format: functional, cell-based
HCC827-Luc [5] = assay: Induction of apoptosis in human HCC827-Luc cells expressing FHIT cocultured with human NCI-H460-Luc cells assessed as PI-positive cells at 10 uM incubated for 12 hrs by calcein AM/Hoechst/PI staining based confocal fluorescence microscopic analysis; format: functional, cell-based
NCI-H460-Luc [6] = assay: Induction of apoptosis in human NCI-H460-Luc cells weakly expressing FHIT cocultured with human HCC827-Luc cells assessed as PI-positive cells at 10 uM incubated for 12 hrs by calcein AM/Hoechst/PI staining based confocal fluorescence microscopic analysis; format: functional, cell-based
HCC827-Luc [7] = assay: Induction of apoptosis in human HCC827-Luc cells assessed as increase in caspase 3/7 activity at 10 uM measured after 24 hrs by confocal fluorescence microscopic analysis; format: functional, cell-based
[8] = target: Bis(5'-adenosyl)-triphosphatase (Homo sapiens) (UniProt P49789); assay: Inhibition of recombinant human FHIT at 100 uM incubated for 1 hr by fluorescence based analysis relative to control
[9] = test system: COc1ccc(-c2c3ccc(=O)cc-3oc3cc(OCOP(=O)(O)OC[C@H]4O[C@@H](n5cnc6c(=O)[nH]c(N)nc65)[C@H](O)[C@@H]4O)ccc23)c(C)c1; assay: (§1) Substrate activity at human recombinant FHIT assessed as Kcat/Km by Michaelis-Menten analysis
[10] = test system: COc1ccc(-c2c3ccc(=O)cc-3oc3cc(OCOP(=O)(O)OC[C@H]4O[C@@H](n5ccc(N)nc5=O)[C@H](O)[C@@H]4O)ccc23)c(C)c1; assay: as §1
[11] = test system: COc1ccc(-c2c3ccc(=O)cc-3oc3cc(OCOP(=O)(O)OC[C@H]4O[C@@H](n5cnc6c(N)ncnc65)[C@H](O)[C@@H]4O)ccc23)c(C)c1; assay: as §1
[12] = test system: COc1ccc(-c2c3ccc(=O)cc-3oc3cc(OCOP(=O)(O)OC[C@H]4O[C@@H](n5ccc(=O)[nH]c5=O)[C@H](O)[C@@H]4O)ccc23)c(C)c1; assay: as §1
[13] = test system: COc1ccc(-c2c3ccc(=O)cc-3oc3cc(OCOP(=O)(O)OC[C@H]4O[C@@H](n5ccc(N)nc5=O)[C@H](O)[C@@H]4O)ccc23)c(C)c1; assay: Substrate activity at human recombinant FHIT assessed as Kcat by Michaelis-Menten analysis
[14] = test system: COc1ccc(-c2c3ccc(=O)cc-3oc3cc(OCOP(=O)(O)OC[C@H]4O[C@@H](n5ccc(N)nc5=O)[C@H](O)[C@@H]4O)ccc23)c(C)c1; assay: Substrate activity at human recombinant FHIT assessed as Km by Michaelis-Menten analysis
[15] = target: Bis(5'-adenosyl)-triphosphatase (Homo sapiens) (UniProt P49789); assay: Inhibition of recombinant human FHIT at 10 uM incubated for 1 hr by fluorescence based analysis relative to control
[16] = target: Bis(5'-adenosyl)-triphosphatase (Homo sapiens) (UniProt P49789); assay: Inhibition of recombinant human FHIT assessed as reduction in AP3Aase activity at 50 uM measured after 45 mins by HPLC analysis relative to control
HCC827-Luc [17] = assay: Induction of apoptosis in human HCC827-Luc cells assessed as increase in caspase 3/7 activity at 1 uM measured after 24 hrs by confocal fluorescence microscopic analysis; format: functional, cell-based

Sequence of Bis(5'-adenosyl)-triphosphatase (Homo sapiens), P49789 (P49789 whole entry): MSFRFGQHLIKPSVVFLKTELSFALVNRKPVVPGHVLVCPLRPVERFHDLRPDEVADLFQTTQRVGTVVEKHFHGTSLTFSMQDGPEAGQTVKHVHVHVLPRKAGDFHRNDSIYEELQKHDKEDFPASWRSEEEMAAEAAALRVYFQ
Sequence of Bis(5'-adenosyl)-triphosphatase (Homo sapiens) (P49789 whole entry, looked up): as the sequence (P49789 whole entry) above

Compound: Nc1ncnc2c1ncn2[C@@H]1O[C@H](COP(=O)(O)OP(=O)(O)OP(=O)(O)OP(=O)(O)OC[C@H]2O[C@@H](n3cnc4c(N)ncnc43)[C@H](O)[C@@H]2O)[C@@H](O)[C@H]1O
inhibition [8]: > 50%

Compound: Bis(5'-adenosyl)-triphosphatase (Homo sapiens), P49789
kcat/Km [9]: 58000 M⁻¹ min⁻¹
kcat/Km [10]: 560000 M⁻¹ min⁻¹
kcat/Km [11]: 380000 M⁻¹ min⁻¹
kcat/Km [12]: 110000 M⁻¹ min⁻¹
kcat [13]: 21 min⁻¹
Km [14]: 37 µM

Compound: Cc1c(OCC#N)ccc2c3c(c(=O)oc12)CCCC3
Activity (NCI-H460-Luc [1]): inactive
Activity (HCC827-Luc [4]): inactive

Compound: CCOC(=O)c1c(C)sc(N)c1C(=O)OCC
inhibition [15]: > 80%

Compound: Nc1ncnc2c1ncn2[C@@H]1O[C@H](COP(=O)(O)O)[C@@H](O)[C@H]1O
inhibition [8]: > 50%

Compound: Nc1ncnc2c1ncn2[C@@H]1O[C@H](COP(=O)(O)OP(=O)(O)OP(=O)(O)OC[C@H]2O[C@@H](n3cnc4c(N)ncnc43)[C@H](O)[C@@H]2O)[C@@H](O)[C@H]1O
inhibition [8]: > 50%

Compound: CN[C@@H]1C[C@H]2O[C@@](C)([C@@H]1OC)n1c3ccccc3c3c4c(c5c6ccccc6n2c5c31)C(=O)NC4
Activity (HCC827-Luc [17]): inactive

Compound: Cc1c(OCC(=O)O)ccc2c3c(c(=O)oc12)CCCC3
Activity (NCI-H460-Luc [1]): inactive
Activity (HCC827-Luc [4]): inactive

Compound: COCC(=O)N1CC[C@@H]2[C@H]1C(=O)NC[C@H](CCC(=O)OC)N2C
inhibition [15]: > 80%

Compound: Cc1c(OCc2nn[nH]n2)ccc2c3c(c(=O)oc12)CCCC3
Activity (NCI-H460-Luc [1]): inactive
Activity (HCC827-Luc [4]): inactive

Now from value to compound, other results behind:

inhibition [3]: Active
Compound: Cc1c(OCC(=O)NO)ccc2c3c(c(=O)oc12)CCCC3
Activity (NCI-H460-Luc [1]): Active
Activity (HCC827-Luc [2]): inactive
Activity (HCC827-Luc [4]): Active
Activity (HCC827-Luc [5]): Active
Activity (NCI-H460-Luc [6]): inactive
Activity (HCC827-Luc [7]): Active

inhibition [15]: > 80%
inhibition [16]: 51%
Compound: CN1C(=O)N/C(=C/c2cccn2-c2ccc(C(=O)O)cc2)C1=O

inhibition [15]: > 80%
Compound: NNC(=O)c1nn(-c2ccccc2)c(=O)cc1O

inhibition [15]: > 80%
Compound: O=C(O)c1ccc(/C=N/NC(=O)c2nc(-c3ccccc3)n(-c3ccccc3)n2)cc1

inhibition [15]: > 80%
inhibition [16]: 95%
Compound: O=C(O)c1ccc2[nH]c(-c3ccnc(-c4cccnc4)c3)nc2c1

inhibition [15]: > 80%
inhibition [16]: 76%
Compound: Cc1c(OCc2nn[nH]n2)ccc2c3c(c(=O)oc12)CCC(C)C3 (stereo not given)

inhibition [15]: > 80%
inhibition [16]: 59%
Compound: O=C(Cn1cc([N+](=O)[O-])ccc1=O)NC(=O)NCc1ccco1
